This series can be described thus: In vitro release of TU, jar technique, 1% CTAB in TRIS buffer pH 8.7, 37° C. The format is in vitro ADME. The following applies: FIG. 14, Table 11 formulations, 200 mg depot in 200 mL media.

Results on one compound are retold here after US20230355511A1, “BIO[…] AND SOLVENT COMPOSITIONS AND SYSTEMS FOR EXTENDED STORAGE AND […] OF ACTIVE PHARMACEUTICAL INGREDIENTS” (TOLMAR INTERNATIONAL LIMITED, priority 2020, published 2023).

Protocol: The in vitro release profiles of solidifying liquid polymer formulations containing TU were conducted using jar technique method with 1% CTAB surfactant in TRIS buffer, pH 8.7 at 37° C. Depots were made by injecting 200 mg of formulation into 200 mL release media. Samples were then periodically collected and analyzed for released drug content. […] Non-formulated TU with a particle size of 67 μm (i.e., with no polymer) were also analyzed as a reference. Additionally, a 20% TU non-solidifying liquid polymer comprising 30% of a 14.2 kDa PDLCL liquid polymer with 25% NMP and 25% PEG 300 was prepared as a reference.

For the compound `CCCCCCCCCCC(=O)O[C@H]1CC[C@H]2[C@@H]3CCC4=CC(=O)CC[C@]4(C)[C@H]3CC[C@]12C` [non-formulated TU particles, testosterone undecanoate], the “TU released within the first 7 days” value is on record as “approximately 75%”.
